Measurements reported in patent US7179614B2, “Screening methods to identify compounds that modulate type I phosphodiesterase (PDE) activity” (Mount Sinai School of Medicine, priority 2000, dated 2007).

Tests used:
[1] = system: PDEs in bovine taste tissue fractions; assay: PDE assay across anion exchange fractions of taste papillae extract; format: biochemical; conditions: 100 μM peptide or 1 mM CaCl2 and 4 μg/ml CaM; for stimulation of cGMP hydrolytic activity: 1 μM cGMP; for stimulation of cAMP hydrolysis: 1 μM cAMP
Experimental: (§1) Preparation of taste extract. 1–2 gm circumvallate taste papillae or fungiform papillae from fresh bovine tongues were dissected and homogenized in a buffer containing 20 mMTris-Cl pH 7.5, 1 mM EDTA, 1 mM DTT, 10% glycerol, 10 μg/ml leupeptin, 10 μg/ml aprotinin, 100 μM AEBSF and 10 μg/ml pepstatin. Homogenization was carried out using a Polytron homogenizer. The homogenate was first spun at 2500×g for 10 minutes at 4° C. and the resulting supernatant was spun at 100,000×g for 30 minutes at 4° C. The supernatant of the second spin was checked for PDE activity and fractionated by anion exchange chromatography.
(§2) Anion Exchange Chromatography. Supernatant prepared from taste papillae was loaded at 1 ml/min on a DEAE-10 anion exchange column which had been equilibrated with buffer A (20 mM Tris-HCl pH 7.5, 2 mM EDTA, 20 mM β-mercapto ethanol). The column was washed in buffer A for 15 minutes or until protein was no longer detected in the buffer. Bound protein activity was eluted at a flow rate of 2 ml/min with a linear gradient (0–100%) of buffer B (buffer A+1 M NaCl) over 45 minutes Fractions were collected at 4° C. and assayed for PDE Activity. Aliquots of each fraction were boiled in sample buffer for Western blot analysis.
(§3) PDE Assays and CaM Affinity on Beads. PDE assays followed established procedures (Sonnenburg et al., Methods 1998, 14:3–19). All assays were performed at 30° C. using either 1 μM cAMP or between 0.2 and 1 μM cGMP as substrate in the presence of 1 mM EGTA (basal), 1 mM CaCl2 plus 4 μg/ml CaM (Ca^2+/CaM) or 100 μM effector activation peptide (Gαt-rod) peptide.

PDE1A1 = target: T1, PDE1A1 (Bos taurus, UniProt P14100); assay: PDE assay of recombinant PDE over-expressed in HEK-293 cells; format: biochemical; conditions: HEK-293 cell homogenate; cGMP substrate; 100 μM peptide or 1 mM CaCl2 and 4 μg/ml CaM
T1 construct: made in house; host or cells: HEK 293 cells, transient transfection, sonicated lysate
T1 sequence (P14100 1-514 isoform P14100-2): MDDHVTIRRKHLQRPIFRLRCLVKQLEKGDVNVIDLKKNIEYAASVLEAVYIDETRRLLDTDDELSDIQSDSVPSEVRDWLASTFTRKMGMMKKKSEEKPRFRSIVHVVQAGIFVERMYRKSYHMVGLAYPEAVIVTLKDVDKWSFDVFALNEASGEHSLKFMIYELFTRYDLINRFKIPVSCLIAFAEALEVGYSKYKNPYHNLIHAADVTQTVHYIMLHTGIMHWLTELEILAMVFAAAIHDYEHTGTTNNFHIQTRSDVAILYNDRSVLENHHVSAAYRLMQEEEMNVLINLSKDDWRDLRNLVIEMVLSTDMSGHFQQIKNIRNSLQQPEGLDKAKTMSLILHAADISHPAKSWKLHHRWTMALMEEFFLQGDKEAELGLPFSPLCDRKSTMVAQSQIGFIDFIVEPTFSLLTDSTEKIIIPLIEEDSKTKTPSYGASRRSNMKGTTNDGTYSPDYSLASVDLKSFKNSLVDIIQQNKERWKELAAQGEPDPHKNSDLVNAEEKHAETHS
Experimental: as §3
(§4) Over-expression and Assay of Recombinant PDEs. HEK 293 cells were cultured in Eagle's MEM with 2 mM […], Earle's balanced salt solution, 1.5 g/L sodium bicarbonate, 0.1 mM non-essential amino acids, 1 mM sodium pyruvate, and 10% heat-inactivated fetal calf serum. HEK 293 cells were seeded at 0.5×10^6 per well in a 6 well dish. After 24 hours, cells were transfected with DNA constructs using Gene Porter (Gene Therapy Systems), a lipid-based transfection reagent. Cells were transfected with 6 μg DNA (PDE1A1, PDE1A2 or PDE1C3) and 30 μl transfection reagent in serum free media in a volume of 1 ml. After 5 hours, the cells were supplemented with 1 ml media containing twice serum. 24 hours later, the cells were harvested by rinsing twice with PBS, scraping the cells into 200 μl of buffer containing 20 mM Tris-Cl pH 7.5, protease inhibitors (Sigma P- 8340), 1 mM 4-(2-aminoethyl) benzenesulfonyl fluoride (AEBSF), 15 μM pepstatin A, 14 μM trans-epoxysuccinyl-L-leucylamido(4-guanidino) butane (E-64), 40 μM bestatin, 22 μM leupeptin, and 0.8 μM aprotinin. Cells were sonicated in 3 five second bursts at approximately 10 Watts, and the lysates were used as the source of enzyme in the PDE assay.

PDE1A2 = target: T2, PDE1A2 (Bos taurus, UniProt P14100); assay: as above; format: biochemical; conditions: HEK-293 cell homogenate; cGMP substrate; 100 μM peptide or 1 mM CaCl2 and 4 μg/ml CaM
T2 construct: made in house; host or cells: HEK 293 cells, transient transfection, sonicated lysate
T2 sequence (P14100 whole entry): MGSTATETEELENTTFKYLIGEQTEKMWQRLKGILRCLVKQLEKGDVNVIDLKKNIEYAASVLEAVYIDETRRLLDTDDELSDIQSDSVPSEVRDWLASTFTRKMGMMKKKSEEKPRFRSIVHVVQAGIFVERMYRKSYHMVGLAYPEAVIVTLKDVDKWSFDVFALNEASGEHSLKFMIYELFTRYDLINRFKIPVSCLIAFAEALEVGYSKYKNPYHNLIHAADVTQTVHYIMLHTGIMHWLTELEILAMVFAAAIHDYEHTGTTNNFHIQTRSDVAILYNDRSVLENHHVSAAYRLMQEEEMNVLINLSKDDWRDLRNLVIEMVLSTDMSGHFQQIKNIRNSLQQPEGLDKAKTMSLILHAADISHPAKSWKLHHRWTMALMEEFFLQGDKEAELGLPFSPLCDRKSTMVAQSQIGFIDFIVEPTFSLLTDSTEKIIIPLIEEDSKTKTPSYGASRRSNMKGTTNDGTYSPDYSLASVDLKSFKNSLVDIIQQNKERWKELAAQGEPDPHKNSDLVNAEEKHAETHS
Experimental: as §3, §4

PDE1C3 = target: T3, PDE1C3 (Homo sapiens, UniProt Q14123); assay: as above; format: biochemical; conditions: HEK-293 cell homogenate; cGMP substrate; 100 μM peptide or 1 mM CaCl2 and 4 μg/ml CaM
T3 construct: made in house; host or cells: HEK 293 cells, transient transfection, sonicated lysate
T3 sequence (Q14123 whole entry): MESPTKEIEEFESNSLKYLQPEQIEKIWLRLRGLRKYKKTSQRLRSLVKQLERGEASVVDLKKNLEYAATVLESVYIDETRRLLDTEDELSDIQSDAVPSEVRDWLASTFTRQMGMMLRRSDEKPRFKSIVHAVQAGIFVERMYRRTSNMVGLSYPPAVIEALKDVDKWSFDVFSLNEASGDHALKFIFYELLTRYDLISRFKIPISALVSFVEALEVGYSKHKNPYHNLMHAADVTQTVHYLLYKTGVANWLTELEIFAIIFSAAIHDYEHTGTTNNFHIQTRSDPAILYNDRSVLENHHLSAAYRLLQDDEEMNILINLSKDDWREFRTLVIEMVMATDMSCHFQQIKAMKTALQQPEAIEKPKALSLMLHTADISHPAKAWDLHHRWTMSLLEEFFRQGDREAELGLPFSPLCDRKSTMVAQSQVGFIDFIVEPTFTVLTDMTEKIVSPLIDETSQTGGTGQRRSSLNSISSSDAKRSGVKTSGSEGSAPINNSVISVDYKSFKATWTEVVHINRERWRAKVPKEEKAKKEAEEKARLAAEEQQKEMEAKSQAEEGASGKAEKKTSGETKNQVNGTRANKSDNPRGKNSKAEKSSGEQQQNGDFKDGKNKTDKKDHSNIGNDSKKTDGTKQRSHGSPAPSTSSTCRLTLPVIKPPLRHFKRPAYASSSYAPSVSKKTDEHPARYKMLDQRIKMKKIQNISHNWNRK
Experimental: as §3, §4

[2] = system: PDE1A present in fractions 6 and 11; assay: PDE assay on anion exchange fractions 6 and 11 of taste tissue; format: biochemical, bovine
Experimental: as §1, §2, §3
Specificity of the calmodulin affinity beads was checked by doing an affinity chromatography purification in the presence of 2 mM EGTA instead of CaCl2. The beads were incubated with the appropriate fractions at 4° C. for 1 hour, then spun for 2 minutes and the supernatant and pellet kept separately. The beads were then washed in the same buffer and resuspended in the presence of protease inhibitors. PDE activity was checked on the beads and in the supernatant. CaCl2 was compensated in the PDE assays when the CaM affinity was done in presence of excess EGTA.

PDE 1 = conditions: Yan et al., J. Biol. Chem. 1996; cited from earlier work

Compound	stimulation of cGMP hydrolytic activity ([1]; first peak, fractions 6–7)	stimulation of cAMP hydrolysis ([1]; first three peaks (fractions 6–7; 10–12; 13–15))	stimulation of cAMP hydrolysis ([1]; fourth peak, fractions 19–23 (PDE4))	stimulation of cGMP hydrolytic activity ([1]; fourth peak, fractions 21–23)	stimulation of cGMP hydrolytic activity ([1]; second peak, fractions 10–12)	stimulation of cGMP hydrolytic activity ([1]; third peak, fractions 13–15)	stimulation of recombinant PDE activity (PDE1A1)	stimulation of recombinant PDE activity (PDE1A2)	stimulation of recombinant PDE activity (PDE1C3)	stimulation of PDE activity ([2]; fractions 6 and 11, 100 μM peptide, 1 μM cGMP)	IC50 (PDE 1)	inhibition of peptide stimulated activity of PDE1A bound to calmodulin beads ([2]; PDE1A bound to calmodulin beads, Gαt-rod peptide stimulated)	inhibition of peptide stimulated PDE activity ([2]; fractions 6 and 11, 1 μM cGMP, 100 μM Gαt-rod peptide)	inhibition of calmodulin stimulated PDE activity ([2]; fractions 6 and 11, 1 μM cGMP, 1 mM CaCl2 and 4 μg/ml CaM)
Gαt-rod peptide: peptide corresponding to the PDE effector-interaction-region of rod transducin (residues 293–314 of transducin Gα) (EDAGNYIKVQFLELNMRRDVKE)	activated	show stimulation	neither Ca^2+/CaM nor Gαt-rod peptide dependent	not stimulated above the basal level	activated	greatest activity when stimulated	stimulated	stimulated	stimulated	stimulated	–	–	–	–
CN1C(=O)c2[nH]c(Cc3ccc(C(F)(F)F)cc3)nc2N2C1=N[C@@H]1CCC[C@@H]12 [SCH 51866]	–	–	–	–	–	–	–	–	–	–	100 nM	also inhibited peptide stimulated activity of PDE1A bound to calmodulin beads	also inhibited peptide stimulated activity	90%
